Results as given in EP1614683B1, “Indazole compounds and pharmaceutical compositions for inhibiting protein kinases, and methods for their use” (priority 1999, dated 2001).
Where two headings read alike, the source gives them in different places.

Tests used:
LCK tyrosine kinase = LCK tyrosine kinase (Homo sapiens, UniProt P06239, C224D/P223M); assay: LCK spectrophotometric assay; assay type: biochemical
Procedure: The spectrophotometric assay was carried out as described above for VEGF-R2, except for the following changes in concentration: LCK = 60 nM, MgCl2 = 0 mM, poly(E4Y1) = 20 mM.

human FGF-R1 = human FGF-R1 (Homo sapiens, UniProt P11362, C488A/C584S/L457V); assay: FGF-R spectrophotometric assay; assay type: biochemical
Chain of human FGF-R1 (P11362 456-766 L457V/C488A/C584S): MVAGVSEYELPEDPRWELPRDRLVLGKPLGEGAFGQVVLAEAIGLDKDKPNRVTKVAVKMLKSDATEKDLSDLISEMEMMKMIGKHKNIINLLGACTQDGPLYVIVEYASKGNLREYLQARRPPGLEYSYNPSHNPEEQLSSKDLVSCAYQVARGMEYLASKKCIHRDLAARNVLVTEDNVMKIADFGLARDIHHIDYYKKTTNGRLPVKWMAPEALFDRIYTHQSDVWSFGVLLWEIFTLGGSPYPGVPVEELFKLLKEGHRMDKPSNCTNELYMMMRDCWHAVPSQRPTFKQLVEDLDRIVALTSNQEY
Procedure: The spectrophotometric assay was carried out as described above for VEGF-R2, except for the following changes in concentration: FGF-R = 50 nM, ATP = 2 mM, and poly(E4Y1) =15 mM.

[1] = tested on: human umbilical vein endothelial cells (HUVEC); assay: HUVEC proliferation assay (VEGF-stimulated, MTT); assay type: cell-based; conditions: for IC50: Homo sapiens, HUVEC, Table 1
Procedure: This assay determines the ability of a test compound to inhibit the growth factor-stimulated proliferation of human umbilical vein endothelial cells ("HUVEC"). HUVEC cells (passage 3-4, Clonetics, Corp.) were thawed into EGM2 culture medium (Clonetics Corp) in T75 flasks. Fresh EGM2 medium was added to the flasks 24 hours later. Four or five days later, cells were exposed to another culture medium (F12K medium supplemented with 10% fetal bovine serum (FBS), 60 µg/mL endothelial cell growth supplement (ECGS), and 0.1 mg/mL heparin). Exponentially-growing HUVEC cells were used in experiments thereafter. Ten to twelve thousand HUVEC cells were plated in 96-well dishes in 100 µl of rich, culture medium (described above). The cells were allowed to attach for 24 hours in this medium. The medium was then removed by aspiration and 105 µl of starvation media (F12K+1% FBS) was added to each well. After 24 hours, 15 µl of test agent dissolved in 1% DMSO in starvation medium or this vehicle alone was added into each treatment well; the final DMSO concentration was 0.1%. One hour later, 30 µl of VEGF (30 ng/mL) in starvation media was added to all wells except those containing untreated controls; the final VEGF concentration was 6 ng/mL. Cellular proliferation was quantified 72 hours later by MTT dye reduction, at which time cells were exposed for 4 hours MTT (Promega Corp.).

[2] = mouse, in vivo, po
[3] = read-out: Lck-P* (% inhibition)
[4] = Table 1, compound concentration 1 µM, read-out: Lck-P* (% inhibition)
[5] = Table 1, compound concentration 1 µM, read-out: FGF-P* (% inhibition)
[6] = + albumin, read-out: HUVEC + albumin IC50

Chain of LCK tyrosine kinase (P06239 223-509 P223M/C224D): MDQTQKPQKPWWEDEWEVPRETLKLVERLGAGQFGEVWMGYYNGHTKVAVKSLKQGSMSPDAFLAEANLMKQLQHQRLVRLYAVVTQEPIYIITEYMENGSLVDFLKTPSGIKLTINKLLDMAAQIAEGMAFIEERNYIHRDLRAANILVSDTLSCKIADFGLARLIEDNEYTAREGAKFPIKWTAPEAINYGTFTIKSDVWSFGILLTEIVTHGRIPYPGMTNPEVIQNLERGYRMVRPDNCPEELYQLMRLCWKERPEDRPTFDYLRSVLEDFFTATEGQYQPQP

In the case of `C=CCOc1cc(-c2ccc3c(/C=C/c4ccc(OC)c(OC)c4)n[nH]c3c2)ccc1O` [1(c), 3-[E-2-(3,4-Dimethoxy-phenyl)vinyl]-6-(3-allyloxy-4-hydroxyphenyl)-1H-indazole], the inhibition at 1 µM (LCK tyrosine kinase; [3]) is reported as 46%.
Work on `COc1cc(-c2ccc3c(-c4ccccc4)n[nH]c3c2)ccc1O` [2(b), 3-phenyl-6-(3-methoxy-4-hydroxy-phenyl)-1H-indazole] yielded a Ki (human FGF-R1; read-out: FGF-P* (Ki, cell in µM), Table 1) of 228 µM.
With `Oc1cccc(Oc2ccc3c(/C=C/c4ccccc4)n[nH]c3c2)c1` [9(a), 3-(E-styryl)-6-[3-hydroxyphenoxy]-1H-indazole] the IC50 ([1]; read-out: HUVEC IC50) was 870 nM.
Molecule `Cc1cnc(C(=O)Nc2cccc(N(C)c3ccc4c(/C=C/c5ccccc5)n[nH]c4c3)c2)s1` [12(d), 5-Methyl-thiazole-2-carboxylic acid {3-[methyl-(3-styryl-1H-indazol-6-yl)-amino]-phenyl)-amide] has an IC50 ([1]; read-out: HUVEC IC50) of 8.1 nM, an inhibition at 1 µM (LCK tyrosine kinase; [4]) of 31% and an inhibition at 1 µM (human FGF-R1; [5]) of 61%.
`CN(C)c1cccc(C(=O)Nc2cccc(N(C)c3ccc4c(/C=C/c5ccc6c(c5)OCO6)n[nH]c4c3)c2)c1` [16(c), N-(3-{[3-(2-Benzo[1,3]dioxol-5-yl-vinyl)-1H-indazol-6-yl]-methyl-amino}-phenyl)-3-dimethylamino-benzamide] gave an IC50 ([1]; read-out: HUVEC IC50) of 100 to 1000 nM.
Work on `CN(c1cccc(NC(=O)c2cccc(C(F)(F)F)c2)c1)c1ccc2c(/C=C/c3ccc4c(c3)OCO4)n[nH]c2c1` [16(d), N-(3-{[3-(2-Benzo[1,3]dioxol-5-yl-vinyl)-1H-indazol-6-yl]-methyl-amino}-phenyl)-3-trifluoromethyl-benzamide] yielded an IC50 ([1]; read-out: HUVEC IC50) of 11 nM, an inhibition at 1 µM (LCK tyrosine kinase; [4]) of 33% and an inhibition at 1 µM (human FGF-R1; [5]) of 90%.
For `CN(c1cccc(NC(=O)c2ccc(O)c(C(C)(C)C)c2)c1)c1ccc2c(/C=C/c3ccc4c(c3)OCO4)n[nH]c2c1` [16(f)], the IC50 ([1]; read-out: HUVEC IC50) was > 30 nM.
For `O=C(Nc1cccc(C(=O)c2ccc3c(/C=C/c4ccccc4)n[nH]c3c2)c1)OCc1ccccc1` [19(c), [3-(3-Styryl-1H-indazole-6-carbonyl)-phenyl]-carbamic acid benzyl ester], the IC50 ([1]; read-out: HUVEC IC50) was 17 nM, the inhibition at 1 µM (LCK tyrosine kinase; [4]) was 50% and the inhibition at 1 µM (human FGF-R1; [5]) was 68%.
For `Cc1cncc(C(=O)Nc2cccc(C(=O)c3ccc4c(/C=C/c5ccccc5)n[nH]c4c3)c2)c1` [19(e), 6-[3-(5-methylpyridin-3-ylcarboxamide)benzoyl]-3-E-styryl-1H-indazole], the IC50 ([1]; read-out: HUVEC IC50) was > 300 nM.
`O=C(Nc1cccc(Sc2ccc3c(/C=C/c4ccccc4)n[nH]c3c2)c1)c1ccccc1` [20(b), 6-(3-(Benzoylamido)-phenylsulfanyl)-3-styryl-1H-indazole] showed an IC50 ([1]; read-out: HUVEC IC50) of 8.2 nM, an inhibition at 1 µM (LCK tyrosine kinase; [4]) of 23% and an inhibition at 1 µM (human FGF-R1; [5]) of 28%.
In the case of `C=C(c1cccc(NC(=O)OCc2ccccc2)c1)c1ccc2c(/C=C/c3ccccc3)n[nH]c2c1` [22(c)], the IC50 ([1]; read-out: HUVEC IC50) is reported as 38 nM.
Molecule `COc1cc(O)ccc1-c1ccc2c(-c3nc4ccccc4[nH]3)n[nH]c2c1` [24(d), 3-1H-Benzoimidazol-2-yl-6-(4-hydroxy-2-methoxyphenyl)-1H-indazole] has an inhibition at 1 µM (LCK tyrosine kinase; read-out: Lck* (% inhibition)) of 51% and an inhibition at 1 µM (human FGF-R1; read-out: FGF* (% inhibition)) of 66%.
`Cc1cc(C(=O)Nc2cc(Nc3ccc4c(/C=C/c5ccccn5)n[nH]c4c3)c(F)cc2C)n(C)n1` [48 (b)] showed an AUCleast ([2]; 25 mg/kg, pH 2.3) of 2191 ng·h/mL and a T1/2 ([2]; 25 mg/kg, pH 2.3) of 4 h.
Molecule `Cc1cc(C(=O)Nc2cc(Nc3ccc4c(/C=C/c5ccccn5)n[nH]c4c3)ccc2F)n(C)n1` [49 (a)] has an AUCleast ([2]; 25 mg/kg, pH 2.3) of 712 ng·h/mL.
In the case of `Cc1cc(C(=O)Nc2cc(Nc3ccc4c(/C=C/c5ccccn5)n[nH]c4c3)ccc2C)n(C)n1` [49 (b)], the AUCleast ([2]; 25 mg/kg, pH 2.3) is reported as 33750 ng·h/mL.
Molecule `CCn1nc(C)cc1C(=O)Nc1cccc(C(=O)c2ccc3c(/C=C/c4ccccn4)n[nH]c3c2)c1.Cl` [59 (a)] has an AUCleast ([2]; 8 mg/kg) of 7707 ng·h/mL, a T1/2 ([2]; 8 mg/kg) of 1.5 h and an AUCleast ([2]; 40 mg/kg) of 57240 ng·h/mL. The T1/2 ([2]; 40 mg/kg) was 2.4 h, the AUCleast ([2]; 200 mg/kg) was 156153 ng·h/mL and the T1/2 ([2]; 200 mg/kg) was 9.4 h.
For `Cc1cc(C(=O)Nc2cccc(C(=O)c3ccc4c(/C=C/c5ccccn5)n[nH]c4c3)c2)n(C)n1.Cl` [59 (b)], the AUCleast ([2]; 50 mg/kg) was 276467 ng·h/mL.
With `CCn1nc(C)cc1C(=O)Nc1cc(Nc2ccc3c(/C=C/c4ccccn4)n[nH]c3c2)c(F)cc1C.Cl` [59 (c)] the AUCleast ([2]; 25 mg/kg) was 327135 ng·h/mL.
In the case of `Cc1cc(C(=O)Nc2cc(Nc3ccc4c(/C=C/c5ccccn5)n[nH]c4c3)ccc2F)n(C)n1.Cl` [59 (d)], the AUCleast ([2]; 8 mg/kg) is reported as > 24696 ng·h/mL, the AUCleast ([2]; 40 mg/kg) is reported as > 32297 ng·h/mL and the AUCleast ([2]; 200 mg/kg) is reported as > 123206 ng·h/mL.
Molecule `CCn1nc(C)cc1C(=O)Nc1cccc(Oc2ccc3c(/C=C/c4ccccn4)n[nH]c3c2)c1.Cl` [59 (e)] has an AUCleast ([2]; 25 mg/kg) of 12510 ng·h/mL and a T1/2 ([2]; 25 mg/kg) of 21 h.
In the case of `O=C(Nc1cccc(Nc2ccc3c(/C=C/c4ccccc4)n[nH]c3c2)c1)c1ccccc1` [Example 13, N-[3-(3-Styryl-1H-indazol-6-ylamino)-phenyl)-benzamide], the IC50 [1, 6] is reported as 28 nM, the IC50 ([1]; read-out: HUVEC IC50) is reported as 3.9 nM and the inhibition at 1 µM (LCK tyrosine kinase; [3]) is reported as 61%. It also gave an inhibition at 1 µM (human FGF-R1; read-out: FGF-P* (% inhibition)) of 74%.
In the case of `NC(=O)c1ccccc1Sc1ccc2c(/C=C/c3ccccn3)n[nH]c2c1` [H-X1], the “% inhibition of the proliferation of HUVEC, 0.5 nM” value ([1]; Library Table II, Y = S (reference Example), nominal concentration 0.5 nM, crude library reaction mixtures, >50% considered significant) is reported as 9% and the “% inhibition of the proliferation of HUVEC, 2 nM” value ([1]; Library Table II, Y = S (reference Example), nominal concentration 2 nM, crude library reaction mixtures, >50% considered significant) is reported as 30%.
Work on `COc1cc(O)ccc1-c1ccc2c(-c3nc4c(SCCO)cccc4[nH]3)n[nH]c2c1` [Reference Example 25(f), 3-[4-(2-hydroxyethylsulfanyl)-1H-benzoimidazol-2-yl)-6-(2-methoxy-4-hydroxyphenyl)-1H-indazole] yielded an inhibition at 1 µM (LCK tyrosine kinase; read-out: Lck* (% inhibition)) of 58% and an inhibition at 1 µM (human FGF-R1; read-out: FGF* (% inhibition)) of 56%.
`CNC(=O)c1cccc2[nH]c(-c3n[nH]c4cc(-c5ccc(O)cc5OC)ccc34)nc12` [Reference Example 25(j), 3-(4-methylcarbamoyl-1H-benzoimidazol-2-yl)-6-(2-methoxy-4-hydroxy-phenyl)-1H-indazole] showed an inhibition at 1 µM (human FGF-R1; read-out: FGF* (% inhibition)) of 70%.
For `CC(=O)N1CCC(C(=O)Nc2cccc(Oc3ccc4c(/C=C/c5ccc(Cl)cc5)n[nH]c4c3)c2)CC1` [Reference Example 30(b), 6-[3-(1-acetylpiperidin-4-ylcarboxamido)phenoxy]-3-E-[2-(4-chlorophenyl)ethenyl]-1H-indazole], the IC50 ([1]; read-out: HUVEC IC50) was 90 nM.
Work on `O=C(Nc1cccc(Oc2ccc3c(/C=C/c4ccco4)n[nH]c3c2)c1)c1ccccc1` [Reference Example 30(c), 6-[3-benzamidophenoxy]-3-[2-(fur-2-yl)ethenyl]-1H-indazole] yielded an IC50 [1, 6] of 21 nM, an IC50 ([1]; read-out: HUVEC IC50) of 2.5 nM and an inhibition at 1 µM (LCK tyrosine kinase; [4]) of 44%. It also gave an inhibition at 1 µM (human FGF-R1; [5]) of 82%.
Work on `O=C(Nc1cccc(Oc2ccc3c(/C=C/c4ccccc4)n[nH]c3c2)c1)c1cccc2[nH]ccc12` [Reference Example 30(d), 6-[3-(indol-4-ylcarboxamido)phenoxy]-3-E-stryrylindazole] yielded an IC50 [1, 6] of 3.8 nM.
In the case of `CCn1nc(C)cc1C(=O)Nc1cccc(Oc2ccc3c(/C=C/c4ccccc4)n[nH]c3c2)c1` [Reference Example 30(e), 6-[3-((1-Ethyl-3-methyl-1H-pyrazol-5-yl)carboxamido)phenoxy]-3-E-stryrylindazole], the IC50 [1, 6] is reported as 29 nM, the inhibition at 1 µM (LCK tyrosine kinase; [4]) is reported as 62% and the inhibition at 1 µM (human FGF-R1; [5]) is reported as 92%.
Molecule `O=C(NNC(=O)c1ccccc1Sc1ccc2c(/C=C/c3ccccn3)n[nH]c2c1)c1cccs1` [Reference Example 35(m), 6-[2-((Thien-2-ylhydrazido)carbonyl)phenylsulfanyl]-3-E-[2-(pyridin-2-yl)ethenyl]-1H-indazole] has an IC50 [1, 6] of 35 nM, an inhibition at 1 µM (LCK tyrosine kinase; [4]) of 61% and an inhibition at 1 µM (human FGF-R1; [5]) of 82%.
`CC(C)(C)c1ccc(C(=O)Nc2cccc(C(=O)c3ccc4c(/C=C/c5ccccn5)n[nH]c4c3)c2)cc1` [Reference Example 41(s), 6-[3-(4-t-butylbenzamido)benzoyl}-3-E-[2-(pyridin-2-yl)ethenyl]-1H-indazole] showed an inhibition at 1 µM (LCK tyrosine kinase; [4]) of 53% and an inhibition at 1 µM (human FGF-R1; [5]) of 86%.
